Measured values taken from ChEMBL document CHEMBL1212904, “Discovery of pyrrole-indoline-2-ones as Aurora kinase inhibitors with a different inhibition profile” (J Med Chem, 2010).

These compounds were tested on HT-29 (assay: Antiproliferative activity against human HT-29 cells after 72 hrs by cell titer 96 assay). Conditions: HT-29, 72 h.
Type: functional, cell-based

| IC50 [nM] | SMILES |
| --- | --- |
| > 10000 | O=C1Nc2ccc(S(=O)(=O)N3CCc4ccccc43)cc2/C1=C/c1[nH]c2c(c1CCC(=O)N1CCOCC1)C(=O)CCC2 |
| > 10000 | O=C1Nc2ccc(NS(=O)(=O)c3ccccc3)cc2/C1=C/c1[nH]c2c(c1CCC(=O)N1CCCC1)C(=O)CCC2 |
| 2130 | CCN(CC)CCCc1c(/C=C2\C(=O)Nc3ccc(S(=O)(=O)N4CCc5ccccc54)cc32)[nH]c2c1C(=O)CCC2 |
| > 10000 | O=C1Nc2ccc(NS(=O)(=O)c3ccccc3)cc2/C1=C/c1[nH]c2c(c1CCC(=O)N1CCOCC1)C(=O)CCC2 |
| > 10000 | CCN(CC)CCCc1c(/C=C2\C(=O)Nc3ccc(NS(=O)(=O)c4ccccc4)cc32)[nH]c2c1C(=O)CCC2 |
| 3320 | O=C1Nc2ccc(NS(=O)(=O)c3ccccc3)cc2/C1=C/c1[nH]c2c(c1CCCN1CCCC1)C(=O)CCC2 |
| > 10000 | CNC(=O)CCc1c(/C=C2\C(=O)Nc3ccc(NS(=O)(=O)c4ccccc4)cc32)[nH]c2c1C(=O)CCC2 |
| > 10000 | O=C(O)CCc1c(/C=C2\C(=O)Nc3ccc(NS(=O)(=O)c4ccccc4)cc32)[nH]c2c1C(=O)CCC2 |
| 750 | CN(C)CCCc1c(/C=C2\C(=O)Nc3ccc(S(=O)(=O)N4CCc5ccccc54)cc32)[nH]c2c1C(=O)CCC2 |

These compounds were tested on HCT-116 (assay: Antiproliferative activity against human HCT116 cells after 72 hrs by cell titer 96 assay). Conditions: HCT-116, 72 h.
Type: functional, cell-based

| IC50 [nM] | SMILES |
| --- | --- |
| > 10000 | O=C1Nc2ccc(S(=O)(=O)N3CCc4ccccc43)cc2/C1=C/c1[nH]c2c(c1CCC(=O)N1CCOCC1)C(=O)CCC2 |
| > 10000 | O=C1Nc2ccc(NS(=O)(=O)c3ccccc3)cc2/C1=C/c1[nH]c2c(c1CCC(=O)N1CCCC1)C(=O)CCC2 |
| 2660 | CCN(CC)CCCc1c(/C=C2\C(=O)Nc3ccc(S(=O)(=O)N4CCc5ccccc54)cc32)[nH]c2c1C(=O)CCC2 |
| > 10000 | O=C1Nc2ccc(NS(=O)(=O)c3ccccc3)cc2/C1=C/c1[nH]c2c(c1CCC(=O)N1CCOCC1)C(=O)CCC2 |
| > 10000 | CCN(CC)CCCc1c(/C=C2\C(=O)Nc3ccc(NS(=O)(=O)c4ccccc4)cc32)[nH]c2c1C(=O)CCC2 |
| > 10000 | O=C1Nc2ccc(NS(=O)(=O)c3ccccc3)cc2/C1=C/c1[nH]c2c(c1CCCN1CCCC1)C(=O)CCC2 |
| > 10000 | CNC(=O)CCc1c(/C=C2\C(=O)Nc3ccc(NS(=O)(=O)c4ccccc4)cc32)[nH]c2c1C(=O)CCC2 |
| > 10000 | O=C(O)CCc1c(/C=C2\C(=O)Nc3ccc(NS(=O)(=O)c4ccccc4)cc32)[nH]c2c1C(=O)CCC2 |
| 900 | CN(C)CCCc1c(/C=C2\C(=O)Nc3ccc(S(=O)(=O)N4CCc5ccccc54)cc32)[nH]c2c1C(=O)CCC2 |

Each compound was assayed against T1, Aurora kinase A (Homo sapiens) (UniProt O14965) (assay: Inhibition of recombinant aurora A at 1 uM). Conditions: not given.
T1 sequence (whole entry): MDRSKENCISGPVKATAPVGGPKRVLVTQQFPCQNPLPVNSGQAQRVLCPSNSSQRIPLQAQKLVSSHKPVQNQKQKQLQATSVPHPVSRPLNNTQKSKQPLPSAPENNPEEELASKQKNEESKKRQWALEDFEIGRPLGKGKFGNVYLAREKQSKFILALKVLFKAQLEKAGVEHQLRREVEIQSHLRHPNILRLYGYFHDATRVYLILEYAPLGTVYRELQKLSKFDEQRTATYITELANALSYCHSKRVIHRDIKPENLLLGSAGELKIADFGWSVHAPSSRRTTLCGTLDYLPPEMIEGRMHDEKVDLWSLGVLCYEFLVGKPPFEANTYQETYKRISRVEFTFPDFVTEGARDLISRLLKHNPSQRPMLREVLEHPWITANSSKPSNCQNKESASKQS

| inhibition [%] | SMILES |
| --- | --- |
| 45.5 | O=C(O)CCc1c(/C=C2\C(=O)Nc3ccc(F)cc32)[nH]c2c1C(=O)CCCC2 |
| 40.6 | O=C(O)CCc1c(/C=C2\C(=O)Nc3ccc(NS(=O)(=O)c4ccc5ccccc5c4)cc32)[nH]c2c1C(=O)CCC2 |

Each compound was assayed against T2, Aurora kinase A (Homo sapiens, UniProt O14965) (assay: Inhibition of recombinant aurora A). Conditions: not given.
T2 sequence (O14965 whole entry): T1 sequence (whole entry)

| IC50 [nM] | SMILES |
| --- | --- |
| 7 | O=C(O)CCc1c(/C=C2\C(=O)Nc3ccc(S(=O)(=O)N4CCCC4)cc32)[nH]c2c1C(=O)CCC2 |
| 57 | CCS(=O)(=O)c1ccc2c(c1)/C(=C/c1[nH]c3c(c1CCC(=O)O)C(=O)CCC3)C(=O)N2 |
| 34 | CCS(=O)(=O)Nc1ccc2c(c1)/C(=C/c1[nH]c3c(c1CCC(=O)O)C(=O)CCC3)C(=O)N2 |
| 39 | C=CCS(=O)(=O)c1ccc2c(c1)/C(=C/c1[nH]c3c(c1CCC(=O)O)C(=O)CCC3)C(=O)N2 |
| 21 | CN(C)S(=O)(=O)c1ccc2c(c1)/C(=C/c1[nH]c3c(c1CCC(=O)O)C(=O)CCC3)C(=O)N2 |

Continued, compound first:

| SMILES | IC50 [nM] |
| --- | --- |
| CC1(C)CC(=O)c2c([nH]c(/C=C3\C(=O)Nc4ccc(F)cc43)c2CCC(=O)O)C1 | 456 |
| O=C1Nc2ccc(S(=O)(=O)N3CCc4ccccc43)cc2/C1=C/c1[nH]c2c(c1CCC(=O)N1CCOCC1)C(=O)CCC2 | 563 |
| O=C(O)CCc1c(/C=C2\C(=O)Nc3ccc(NC(=O)c4ccccc4)cc32)[nH]c2c1C(=O)CCC2 | 720 |
| O=C1Nc2ccc(NS(=O)(=O)c3ccccc3)cc2/C1=C/c1[nH]c2c(c1CCC(=O)N1CCCC1)C(=O)CCC2 | 218 |
| CC(=O)c1c(C)[nH]c(/C=C2\C(=O)Nc3ccc(F)cc32)c1CCC(=O)O | 362 |
| CCN(CC)CCCc1c(/C=C2\C(=O)Nc3ccc(S(=O)(=O)N4CCc5ccccc54)cc32)[nH]c2c1C(=O)CCC2 | 2340 |
| O=C1Nc2ccc(NS(=O)(=O)c3ccccc3)cc2/C1=C/c1[nH]c2c(c1CCC(=O)N1CCOCC1)C(=O)CCC2 | 281 |
| CCN(CC)CCCc1c(/C=C2\C(=O)Nc3ccc(NS(=O)(=O)c4ccccc4)cc32)[nH]c2c1C(=O)CCC2 | 2450 |
| O=C1Nc2ccc(NS(=O)(=O)c3ccccc3)cc2/C1=C/c1[nH]c2c(c1CCCN1CCCC1)C(=O)CCC2 | 2170 |
| CNC(=O)CCc1c(/C=C2\C(=O)Nc3ccc(NS(=O)(=O)c4ccccc4)cc32)[nH]c2c1C(=O)CCC2 | 117 |
| O=C(O)CCc1c(/C=C2\C(=O)Nc3ccc(NS(=O)(=O)c4ccccc4)cc32)[nH]c2c1C(=O)CCC2 | 12 |
| CN(C)CCCc1c(/C=C2\C(=O)Nc3ccc(S(=O)(=O)N4CCc5ccccc54)cc32)[nH]c2c1C(=O)CCC2 | 2270 |
| O=C(O)CCc1c(/C=C2\C(=O)Nc3ccc(S(=O)(=O)N4CCc5ccccc54)cc32)[nH]c2c1C(=O)CCC2 | 8 |

The compounds below were run against T3, Aurora kinase B (Homo sapiens, UniProt Q96GD4) (assay: Inhibition of recombinant aurora B at 1 uM). Conditions: not given.
T3 sequence (Q96GD4 whole entry): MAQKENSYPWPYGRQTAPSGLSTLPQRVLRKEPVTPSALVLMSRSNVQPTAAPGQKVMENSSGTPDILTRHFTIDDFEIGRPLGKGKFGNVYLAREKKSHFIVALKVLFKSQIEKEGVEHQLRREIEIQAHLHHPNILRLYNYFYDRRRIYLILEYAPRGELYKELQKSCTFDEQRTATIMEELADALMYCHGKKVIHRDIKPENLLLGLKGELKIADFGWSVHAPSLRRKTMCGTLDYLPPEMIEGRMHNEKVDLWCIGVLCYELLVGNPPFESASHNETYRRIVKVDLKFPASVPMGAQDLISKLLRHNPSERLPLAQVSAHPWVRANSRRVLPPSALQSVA

| inhibition [%] | SMILES |
| --- | --- |
| 11.6 | O=C(O)CCc1c(/C=C2\C(=O)Nc3ccc(F)cc32)[nH]c2c1C(=O)CCC2 |
| 6.8 | O=C(O)CCc1c(/C=C2\C(=O)Nc3ccc(Br)cc32)[nH]c2c1C(=O)CCC2 |
| 7 | CCS(=O)(=O)c1ccc2c(c1)/C(=C/c1[nH]c3c(c1CCC(=O)O)C(=O)CCC3)C(=O)N2 |
| 7.3 | CCS(=O)(=O)Nc1ccc2c(c1)/C(=C/c1[nH]c3c(c1CCC(=O)O)C(=O)CCC3)C(=O)N2 |
| 2.6 | CNS(=O)(=O)c1ccc2c(c1)/C(=C/c1[nH]c3c(c1CCC(=O)O)C(=O)CCC3)C(=O)N2 |
| 32.5 | C=CCS(=O)(=O)c1ccc2c(c1)/C(=C/c1[nH]c3c(c1CCC(=O)O)C(=O)CCC3)C(=O)N2 |
| 3.4 | O=C(O)CCc1c(/C=C2\C(=O)Nc3ccc([N+](=O)[O-])cc32)[nH]c2c1C(=O)CCC2 |
| 34.1 | NS(=O)(=O)c1ccc2c(c1)/C(=C/c1[nH]c3c(c1CCC(=O)O)C(=O)CCC3)C(=O)N2 |

More lines, now with the values behind:

| SMILES | inhibition [%] |
| --- | --- |
| O=C(O)CCc1c(/C=C2\C(=O)Nc3ccc(S(=O)(=O)Cc4ccc(F)cc4)cc32)[nH]c2c1C(=O)CCC2 | 15.5 |
| CC1(C)CC(=O)c2c([nH]c(/C=C3\C(=O)Nc4ccc(F)cc43)c2CCC(=O)O)C1 | 17.3 |
| O=C(O)CCc1c(/C=C2\C(=O)Nc3ccc(NC(=O)c4ccccc4)cc32)[nH]c2c1C(=O)CCC2 | 14.2 |
| CC(=O)c1c(C)[nH]c(/C=C2\C(=O)Nc3ccc(F)cc32)c1CCC(=O)O | 17.5 |
| CCOC(=O)CCc1c(/C=C2\C(=O)Nc3ccc(F)cc32)[nH]c2c1C(=O)CCC2 | 3 |
| O=C(O)CCc1c(/C=C2\C(=O)Nc3ccccc32)[nH]c2c1C(=O)CCC2 | 13 |
| CCOC(=O)CCc1c(/C=C2\C(=O)Nc3ccccc32)[nH]c2c1C(=O)CCC2 | 2.3 |
| CC(=O)Nc1ccc2c(c1)/C(=C/c1[nH]c3c(c1CCC(=O)O)C(=O)CCC3)C(=O)N2 | 12.8 |
| O=C(O)CCc1c(/C=C2\C(=O)Nc3ccc(S(=O)(=O)Cc4ccccc4)cc32)[nH]c2c1C(=O)CCC2 | 11.2 |
| O=C(O)CCc1c(/C=C2\C(=O)Nc3ccc(F)cc32)[nH]c2c1C(=O)CCCC2 | 2 |
| COc1ccc(-c2ccc3c(c2)/C(=C/c2[nH]c4c(c2CCC(=O)O)C(=O)CCC4)C(=O)N3)cc1OC | 5.1 |
| COc1cc(-c2ccc3c(c2)/C(=C/c2[nH]c4c(c2CCC(=O)O)C(=O)CCC4)C(=O)N3)ccc1O | 12.4 |
| O=C(O)CCc1c(/C=C2\C(=O)Nc3ccc(NS(=O)(=O)c4ccc5ccccc5c4)cc32)[nH]c2c1C(=O)CCC2 | 21 |

Each compound was assayed against T3, Aurora kinase B (assay: Inhibition of recombinant aurora B). Conditions: not given.

| IC50 [nM] | SMILES |
| --- | --- |
| 3150 | O=C1Nc2ccc(S(=O)(=O)N3CCc4ccccc43)cc2/C1=C/c1[nH]c2c(c1CCC(=O)N1CCOCC1)C(=O)CCC2 |
| 719 | O=C1Nc2ccc(NS(=O)(=O)c3ccccc3)cc2/C1=C/c1[nH]c2c(c1CCC(=O)N1CCCC1)C(=O)CCC2 |
| 616 | CCN(CC)CCCc1c(/C=C2\C(=O)Nc3ccc(S(=O)(=O)N4CCc5ccccc54)cc32)[nH]c2c1C(=O)CCC2 |
| 906 | O=C1Nc2ccc(NS(=O)(=O)c3ccccc3)cc2/C1=C/c1[nH]c2c(c1CCC(=O)N1CCOCC1)C(=O)CCC2 |
| 356 | CCN(CC)CCCc1c(/C=C2\C(=O)Nc3ccc(NS(=O)(=O)c4ccccc4)cc32)[nH]c2c1C(=O)CCC2 |
| 310 | O=C1Nc2ccc(NS(=O)(=O)c3ccccc3)cc2/C1=C/c1[nH]c2c(c1CCCN1CCCC1)C(=O)CCC2 |
| 320 | CNC(=O)CCc1c(/C=C2\C(=O)Nc3ccc(NS(=O)(=O)c4ccccc4)cc32)[nH]c2c1C(=O)CCC2 |
| 312 | CN(C)CCCc1c(/C=C2\C(=O)Nc3ccc(S(=O)(=O)N4CCc5ccccc54)cc32)[nH]c2c1C(=O)CCC2 |

What follows are compounds tested on HCT-116 (assay: Antiproliferative activity against human HCT116 cells after 72 hrs by [3H]thymidine incorporation assay). Conditions: not given.
Type: functional, cell-based

| IC50 [nM] | SMILES |
| --- | --- |
| > 10000 | O=C(O)CCc1c(/C=C2\C(=O)Nc3ccc(NS(=O)(=O)c4ccccc4)cc32)[nH]c2c1C(=O)CCC2 |

The compounds below were run on HeLa (assay: Antiproliferative activity against human HeLa cells after 72 hrs by cell titer 96 assay). Conditions: not given.
Type: functional, cell-based

| IC50 [nM] | SMILES |
| --- | --- |
| > 10000 | O=C1Nc2ccc(S(=O)(=O)N3CCc4ccccc43)cc2/C1=C/c1[nH]c2c(c1CCC(=O)N1CCOCC1)C(=O)CCC2 |
| > 10000 | O=C1Nc2ccc(NS(=O)(=O)c3ccccc3)cc2/C1=C/c1[nH]c2c(c1CCC(=O)N1CCCC1)C(=O)CCC2 |
| 3270 | CCN(CC)CCCc1c(/C=C2\C(=O)Nc3ccc(S(=O)(=O)N4CCc5ccccc54)cc32)[nH]c2c1C(=O)CCC2 |
| > 10000 | O=C1Nc2ccc(NS(=O)(=O)c3ccccc3)cc2/C1=C/c1[nH]c2c(c1CCC(=O)N1CCOCC1)C(=O)CCC2 |
| 8610 | CCN(CC)CCCc1c(/C=C2\C(=O)Nc3ccc(NS(=O)(=O)c4ccccc4)cc32)[nH]c2c1C(=O)CCC2 |
| > 10000 | O=C1Nc2ccc(NS(=O)(=O)c3ccccc3)cc2/C1=C/c1[nH]c2c(c1CCCN1CCCC1)C(=O)CCC2 |
| > 10000 | CNC(=O)CCc1c(/C=C2\C(=O)Nc3ccc(NS(=O)(=O)c4ccccc4)cc32)[nH]c2c1C(=O)CCC2 |
| 1620 | CN(C)CCCc1c(/C=C2\C(=O)Nc3ccc(S(=O)(=O)N4CCc5ccccc54)cc32)[nH]c2c1C(=O)CCC2 |
